This passage reports IC50 results from patent publication US20240270741A1 (Cogent Biosciences, Inc., priority 2023, published 2024).

In general, IC50 refers to the concentration that inhibits the measured activity by half. A lower IC50 goes with greater potency in that assay.

Structures are written as SMILES.

The target in the first experiment is FGFR2 (Homo sapiens, UniProt P21802). Briefly: FGFR wild type enzyme assay (HTRF KinEASE-TK), FGFR2. To be noted: Enz FGFR2 (nM), FGFR2 wild type enzyme. A general note: In TR-FRET formats the signal depends on donor and acceptor labels being close together.
Sequence of FGFR2 (P21802 399-821 limits assumed): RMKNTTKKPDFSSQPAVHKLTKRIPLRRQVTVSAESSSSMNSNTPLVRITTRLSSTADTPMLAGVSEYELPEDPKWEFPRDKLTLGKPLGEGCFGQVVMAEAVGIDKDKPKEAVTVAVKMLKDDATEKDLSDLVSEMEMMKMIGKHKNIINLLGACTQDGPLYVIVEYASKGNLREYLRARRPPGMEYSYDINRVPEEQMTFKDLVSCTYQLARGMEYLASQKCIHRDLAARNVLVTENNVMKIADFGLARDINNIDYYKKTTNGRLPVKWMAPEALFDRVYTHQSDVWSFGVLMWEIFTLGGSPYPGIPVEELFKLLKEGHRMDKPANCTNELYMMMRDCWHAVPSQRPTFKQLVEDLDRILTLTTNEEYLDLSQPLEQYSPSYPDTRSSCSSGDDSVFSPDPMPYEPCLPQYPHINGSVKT
Consider `Cc1c(-c2cc(Sc3ccc(F)cc3C#N)c3c(C#N)cnn3c2)cnn1[C@H]1CC[C@](C)(O)CC1` [Example 323, 4-((2-cyano-4-fluorophenyl)thio)-6-(1-((1r,4r)-4-hydroxy-4-methylcyclohexyl)-5-methyl-1H-pyrazol-4-yl)pyrazolo[1,5-a]pyridine-3-carbonitrile], for which the IC50 was found to be 1 nM.
On the same count and under the same terms, to `Cc1c(-c2cc(Sc3ccc(F)cc3C#N)c3c(C#N)cnn3c2)cnn1[C@H]1CC[C@@](C)(O)CC1` [Example 324, 4-((2-cyano-4-fluorophenyl)thio)-6-(1-((1s,4s)-4-hydroxy-4-methylcyclohexyl)-5-methyl-1H-pyrazol-4-y)pyrazolo[1,5-a]pyridine-3-carbonitrile] belongs 1 nM; to `Cc1c(-c2cc(Sc3ccc(F)cc3C#N)c3c(C#N)cnn3c2)cnn1[C@H]1CC[C@@](C)(N)CC1` [Example 325, 6-(1-((1s,4s)-4-amino-4-methylcyclohexyl)-5-methyl-1H-pyrazol-4-yl)-4-((2-cyano-4-fluorophenyl)thio)pyrazolo [1,5-a]pyridine-3-carbonitrile], 0.5 nM.
`CN[C@]1(C)CC[C@H](n2ncc(-c3cc(Sc4ccc(F)cc4C#N)c4c(C#N)cnn4c3)c2C)CC1` [Example 326, 4-((2-cyano-4-fluoorphenyl)thio)-6-(5-methyl-1-((1s,4s)-4-methyl-4-(methylamino)cyclohxyl)-1H-pyrazol-4-eyl)pyrazolo[1,5-a]pyridine-3-carbonitrile] returned an IC50 of 1 nM.
On the same count and under the same terms, with `Cc1c(-c2cc(Sc3ccc(F)cc3C#N)c3c(C#N)cnn3c2)cnn1[C@H]1CC[C@@](C)(N(C)C)CC1` [Example 327, 4-((2-cyano-4-fluorophenyl)thio)-6-(1-((1s,4s)-4-(dimethylamino)-4-methylcyclohexyl)-5-methyl-1H-pyrazol-4-yl)pyrazolo[1,5-a]pyridine-3-carbonitrile] the figure was 0.5 nM; with `Cc1c(-c2cc(Sc3ncc(F)cc3F)c3c(C#N)cnn3c2)cnn1C1CCN(C)CC1` [Example 328, 4-((3,5-difluoropyridin-2-yl)thio)-6-(5-methyl-1-(1-methylpiperidin-4-yl)-1H-pyrazol-4-yl)pyrazolo[1,5-a]pyridine-3-carbonitrile], 3 nM; with `Cc1c(-c2cc(Sc3ccc(F)cn3)c3c(C#N)cnn3c2)cnn1C1CCN(C)CC1` [Example 329, 4-((5-fluoropyridin-2-yl)thio)-6-(5-methyl-1-(1-methylpiperidin-4-yl)-1H-pyrazol-4-yl)pyrazolo[1,5-a]pyridine-3-carbonitrile], 5 nM.
Consider `Cc1c(-c2cc(Sc3ccc(F)cc3C#N)c3c(C#N)cnn3c2)cnn1C1CCN(C(C)C)CC1` [Example 330, 4-((2-cyano-4-fluorophenyl)thio)-6-(1-(1-isopropylpiperidin-4-yl)-5-methyl-1H-pyrazol-4-yl)pyrazolo[1,5-a]pyridine-3-carbonitrile], for which the IC50 is 1 nM.
On the same count and under the same terms, with `Cc1c(-c2cc(Sc3ccc(F)cc3C#N)c3c(C#N)cnn3c2)cnn1C1CCN(C[C@@H](C)O)CC1` [Example 331, (R)-4-((2-cyano-4-fluorophenyl)thio)-6-(1-(1-(2-hydroxypropyl)piperidin-4-yl)-5-methyl-1H-pyrazol-4-yl)pyrazolo[1,5-a]pyridine-3-carbonitrile] the figure was 1 nM; with `Cc1c(-c2cc(Sc3ccc(F)cc3C#N)c3c(C#N)cnn3c2)cnn1[C@H]1CCCN(C(=O)CO)C1` [Example 332, (S)-4-((2-cyano-4-fluorophenyl)thio)-6-(1-(1-(2-hydroxyacetyl)piperidin-3-yl)-5-methyl-1H-pyrazol-4-yl)pyrazolo[1,5-a]pyridine-3-carbonitrile], 1 nM.

Staying with this experiment, now noted: Enz FGFR2 (nM), FGFR2 wild type enzyme assay.
Consider `Cc1c(-c2cc(Sc3ccc(F)cc3C#N)c3c(C#N)cnn3c2)cnn1[C@H]1CCCNC1` [Example 333, (S)-4-((2-cyano-4-fluorophenyl)thio)-6-(5-methyl-1-(piperidin-3-yl)-1H-pyrazol-4-yl)pyrazolo[1,5-a]pyridine-3-carbonitrile], for which the IC50 worked out at 1 nM.
Same read-out and setting: to `CC(=O)N1CCC[C@H](n2ncc(-c3cc(Sc4ccc(F)cc4C#N)c4c(C#N)cnn4c3)c2C)C1` [Example 334, (S)-6-(1-(1-acetylpiperidin-3-yl)-5-methyl-1H-pyrazol-4-yl)-4-((2-cyano-4-fluorophenyl)thio)pyrazolo [1,5-a]pyridine-3-carbonitrile] belongs 1 nM.
`Cc1c(-c2cc(Sc3ccc(F)cc3C#N)c3c(C#N)cnn3c2)cnn1[C@H]1CCCN(C)C1` [Example 335, (S)-4-((2-cyano-4-fluorophenyl)thio)-6-(5-methyl-1-(1-methylpiperidin-3-yl)-1H-pyrazol-4-yl)pyrazolo[1,5-a]pyridine-3-carbonitrile] showed an IC50 of 1 nM.
On the same count and under the same terms, with `Cc1c(-c2cc(Sc3ccc(F)cc3C#N)c3c(C#N)cnn3c2)cnn1[C@H]1CCCN(CCO)C1` [Example 336, (S)-4-((2-cyano-4-fluorophenyl)thio)-6-(1-(1-(2-hydroxyethyl)piperidin-3-yl)-5-methyl-1H-pyrazol-4-yl)pyrazolo[1,5-a]pyridine-3-carbonitrile] the figure was 1 nM.
Still for that read-out and setting: to `Cc1nn([C@H]2CC[C@@H](N(C)C)CC2)c(C)c1-c1cc(Sc2ccccc2C#N)c2c(C#N)cnn2c1` [Example 337, 4-((2-cyanophenyl)thio)-6-(1-((1s,4s)-4-(dimethylamino)cyclohex-yl)-3,5-dimethyl-1H-pyrazol-4-yl)pyrazolo[1,5-a]pyridine-3-carbonitrile] belongs 3 nM; to `CC(=O)N1CCC(n2ncc(-c3cc(Sc4ccc(F)cc4C#N)c4c(C#N)cnn4c3)c2C)CC1` [Example 338, 6-(1-(1-acetylpiperidin-4-yl)-5-methyl-1H-pyrazol-4-yl)-4-((2-cyano-4-fluorophenyl)thio)pyrazolo [1,5-a]pyridine-3-carbonitrile], 1 nM; to `Cc1c(-c2cc(Sc3ccc(F)cc3C#N)c3c(C#N)cnn3c2)cnn1C1CCN(C(=O)CO)CC1` [Example 339, 4-((2-cyano-4-fluorophenyl)thio)-6-(1-(1-(2-hydroxyacetyl)piperidin-4-yl)-5-methyl-1H-pyrazol-4-yl)pyrazolo[1,5-a]pyridine-3-carbonitrile], 1 nM.
The same measure, in the same setting: with `C#Cc1cnn2cc(-c3cnn(C4CCN(C(=O)CO)CC4)c3C)cc(Sc3ccc(F)cn3)c12` [Example 340, 1-(4-(4-(3-ethynyl-4-((5-fluoropyridin-2-yl)thio)pyrazolo[1,5-a]pyridin-6-yl)-5-methyl-1H-pyrazol-1-yl)piperidin-1-yl)-2-hydroxyethan-1-one] the figure was 7.5 nM; with `Cc1c(-c2cc(Sc3ccc(F)cn3)c3c(C#N)cnn3c2)cnn1C1CCN(C(=O)[C@H](C)O)CC1` [Example 341, (S)-4-((5-fluoropyridin-2-yl)thio)-6-(1-(1-(2-hydroxypropanoyl)piperidin-4-yl)-5-methyl-1H-pyrazol-4-yl)pyrazolo[1,5-a]pyridine-3-carbonitrile], 9 nM.
For `Cc1c(-c2cc(Sc3ncc(F)cc3F)c3c(C#N)cnn3c2)cnn1C1CCN(C(=O)[C@H](C)O)CC1` [Example 342, (S)-4-((3,5-difluoropyridin-2-yl)thio)-6-(1-(1-(2-hydroxypropanoyl)piperidin-4-yl)-5-methyl-1H-pyrazol-4-yl)pyrazolo[1,5-a]pyridine-3-carbonitrile], 6 nM corresponded to half-maximal inhibition (IC50).
